Assay results reported in patent publication US20110071124A1, “Compounds that Inhibit Production of sAPPB and AB and Uses Thereof” (The Trustees of Columbia University in the City of New York, priority 2008, published 2011).
Read-outs that look alike come from different tables or passages of the source.

What was measured:
[1] = test system: sAPPβ (BACE1 cleavage of SEAP-APPwt) in SY5Y-BACEGFP-SEAPAPPwt cells; experiment: cell-based BACE1 assay (sAPPβ modified ELISA)
Experimental: FIG. 1. An sAPPβ assay utilized to identify inhibitors of BACE1. The assay utilizes SY5Y cells stably overexpressing BACE-GFP and SEAP-APPwt. Cells are incubated with a candidate compound for 6 hours prior to harvesting media. BACE1-mediated cleavage of APP results in the release of sAPPβ into the media. α-secretase, a competing enzyme that is non-amyloidogenic, also cleaves APP to release […]. Using an sAPPβ-specific antibody (sβwt), SEAP-sAPPβ is specifically captured in a modified ELISA assay. Detection is achieved by addition of the fluorescent alkaline phosphatase substrate, 4-methylumbelliferyl phosphate (4-MUP).
(§1) FIG. 13. […] Compounds were tested in SY5Y-BACEGFP-SEAPAPPwt cells using the cell-based BACE1 assay. Select compounds were also investigated for Aβ-lowering effect using a commercial Aβ ELISA kit (BioSource). All compounds were tested at 8 concentrations (30, 10, 3, 1, 0.3, 0.1, 0.03, and 0.01 μM), and data points were analyzed with Origin software and fitted using a logistic model for IC50 determination.
As described in the Examples below, and depicted in FIG. 1, an sAPPβ ELISA assay may comprise cells, for example, SY5Y cells, transfected with a BACE1 reporter construct, such as a GFP-tagged BACE1 (BACE-GFP), and a wild type APP reporter construct, such as a secreted alkaline phosphatase (SEAP)-tagged wild type APP (SEAP-APPwt). BACE1 cleavage of the reporter-tagged APP (e.g. SEAP-APPwt) may result in secretion into the media of SEAP-tagged sAPPβ, which may be collected and specifically captured using an sAPPβ cleavage site-specific antibody (e.g. stβwt). Following washing, a substrate may be used, for example, the fluorescent alkaline phosphatase substrate 4-methylumbelliferyl phosphate (4-MUP), to detect the captured SEAP-sAPPβ.
A cell-based modified ELISA assay for measuring sAPPβ, the secreted ectodomain of β-amyloid precursor protein (APP) following β-secretase (BACE1) cleavage, was used to identify a class of compounds that interfered with the first step of sAPPβ generation. This assay has been described in International Application PCT/US2007/015938 (Published as International Publication No. WO 08/008463), which is herein incorporated in its entirety for all purposes.
The SY5Y-BACEGFP-SEAPAPPwt cell based assay was developed to discover novel small molecule modulators of BACE1 activity. SY5Y cells were stably transfected with GFP-tagged BACE1 (BACE-GFP) and secreted alkaline phosphatase (SEAP)-tagged wildtype APP (SEAP-APPwt). BACE1 cleavage of SEAP-APPwt results in secretion into the media of SEAP-tagged sAPPβ, which is collected and specifically captured using an sAPP0 cleavage site-specific antibody (sβwt). After washing, the fluorescent alkaline phosphatase substrate 4-methylumbelliferyl phosphate (4-MUP) is used to detect the captured SEAP-sAPPβ (FIG. 1).
The 15 LDDN compounds selected based on their 3-point dose-response profile were tested at 12 concentrations (ranging from 0.1 nM to 30 μM) in the cell-based BACE1 assay. The assay was conducted in 96-well format to maximize the Z′ factor. Compounds were characterized in duplicate cell plates, each containing 12 doses of compound in triplicate. Cell viability was measured at 6 and 24 hours using Promega's Cell Titer-Glo kit according to the manufacturer's protocol. The dose-response curves for sAPPβ reduction were plotted using Origin software and fitted using a logistic model for IC50 determination.
(§2) 27 structural analogs of LDN-0057228 were synthesized and tested using the cell-based BACE1 assay in SY5Y-BACEGFP-SEAPAPPwt cells (FIG. 13). 4 analogs, in addition to the parent compound, were also assessed for Aβ40 lowering activity using a commercial Aβ kit (BioSource). Because LDN-0057228 resembles CNS monoamine transporter inhibitors, this analog series was given the designation “CNS.” LDN-0057228 gave an unexpectedly low potency (IC50˜20 μM for both sAPPβ and Aβ40 reduction) compared to the ˜7 μM potency obtained using the same compound in FIG. 8.

[2] = test system: Aβ40 in SY5Y-BACEGFP-SEAPAPPwt cells; experiment: Aβ40 ELISA (BioSource) in SY5Y-BACEGFP-SEAPAPPwt cells; type: cell-based; details: for IC50: SAR study, 8 concentrations (30-0.01 μM), SY5Y-BACEGFP-SEAPAPPwt cells
Experimental: FIG. 11. 5 LDDN compounds reduce Aβ40 in SYSY-BACEGFP-SEAPAPPwt cells. sAPPβ and 24-hour cell viability was performed as described in Chapter 4.1. Aβ40 ELISA was performed using the Aβ40 ELISA kit (BioSource) according to the manufacturer's protocol. Cell culture media was collected after 6 hours of treatment with 4 concentrations (30, 10, 3, 0.3 μM) of compound and diluted 3:10 prior to loading onto the Aβ ELISA plate. The data points for sAPPβ and Aβ were roughly superimposed. Data points represent mean±s.d. of 3 determinations.
as §1
In other non-limiting embodiments, the effective amount of at least one compound of Formulas I-VII, and/or a compound depicted in FIG. 19, may be correlated with the compound's ability to reduce the level of Aβ40 in an in vitro assay that measures the level of Aβ40 produced in a cell line, for example, an SY5Y-BACEGFP-SEAPAPPwt cell line. In one non-limiting example, the level of Aβ40 expressed by the cell line may be measured through the use of an Aβ40 Elisa kit (Bio Source). In one embodiment, the assay comprises incubating the Aβ40 expressing cells with a compound of Formulas I-VII, and/or a compound depicted in FIG. 19, followed by assaying the concentration of Aβ40 in the cell media. In such an assay, a greater reduction of Aβ40 concentration in the cell media following incubation with a compound compared to a control cell line not contacted with the compound is correlative with the compound's therapeutic efficacy.
The 15 LDDN compounds were tested in SY5Y-BACEGFP-SEAPAPPwt cells for their ability to reduce Aβ40 using a commercial Aβ40 ELISA kit (BioSource). SY5Y-BACEGFP-SEAPAPPwt cells were grown to 100% confluence and incubated with 4 concentrations of each compound (30, 10, 3, 0.3 μM). Cell culture media was collected after 6 hours of compound incubation and diluted 3:10 in sample diluent supplied in the Aβ40 ELISA kit. Aβ ELISA was performed according to the manufacturer's protocol. […] LDN-0057228 and LDN-0069630 are small molecules with ample chemical space for modification, and are thus considered good candidates for medicinal chemistry.
as §2

[3] = SAR study, 8 concentrations (30-0.01 μM), SY5Y-BACEGFP-SEAPAPPwt cells, read-out: IC50(sAPPβ)

Row | Structure (SMILES) | IC50 [1, 3] [µM] | IC50 [2] [µM] | IC50 ([1]; 12 concentrations 0.1 nM to 30 μM, 96-well format (FIG. 8), read-out: cell-based IC50 (sAPPβ), 12-point dose-response) [µM] | dose-dependent decrease in Aβ40 ([2]; 4 concentrations (30, 10, 3, 0.3 μM), 6 hours)
1 | O=C(CCc1ccccc1)NC[C@@H]1CCCN1CCOC(c1ccc(F)cc1)c1ccc(F)cc1 [CNS-2] | 8.9 | 5 | – | –
2 | Fc1ccc(C(OCCN2CCC[C@H]2CNCCc2ccccc2)c2ccc(F)cc2)cc1 [LDN-0057228] | ~20 | ~20 | ~7 | caused a dose-dependent decrease in Aβ40
